Reference: patent publication US9302999B2, “Substituted triazoles as herbicides” (E. I. DU PONT DE NEMOURS AND COMPANY, priority 2012, dated 2016)
Like-named read-outs stand apart in the source and are kept apart here.

Columns and labels:
Type in all cases: in vivo
[1] = system: crabgrass, large (large crabgrass, Digitaria sanguinalis); experiment: Test A pre-/postemergence: crabgrass, large; details: for pest or weed control at 125 g/ha / pest or weed control at 500 g/ha: Digitaria sanguinalis, 240 h
Procedure, shortened: (§1)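 Rating scale 0–100 (100 = complete control), visual, ~10 days after application in the greenhouse. Applications: preemergence directed soil spray; postemergence at 1–2 leaves.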

[2] = system: foxtail, giant (giant foxtail, Setaria faberii); experiment: Test A pre-/postemergence: foxtail, giant; details: for pest or weed control at 125 g/ha / pest or weed control at 500 g/ha: Setaria faberi, 240 h
Procedure, shortened: as §1

[3] = system: morningglory (Ipomoea spp.); experiment: Test A pre-/postemergence: morningglory; details: for Morningglory plant response rating: Postemergence
Procedure, shortened: as §1

[4] = system: sedge, umbrella (small-flower umbrella sedge Cyperus difformis); experiment: Test B flooded paddy: sedge, umbrella; details: Flood; 250 g ai/ha; applied to paddy water at 2-leaf stage; visually evaluated after 13 to 15 days
Procedure, shortened: (§2)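 Plants were grown to the 2-leaf stage and pots flooded to 3 cm above soil. Compounds were applied directly into the paddy water, with depth kept for the test. After 13–15 days in greenhouse, response was rated visually against controls on a 0 (no effect) to 100 (complete control) scale.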

[5] = system: ducksalad (Heteranthera limosa); experiment: Test B flooded paddy: ducksalad; details: Flood; 250 g ai/ha; applied to paddy water at 2-leaf stage; visually evaluated after 13 to 15 days
Procedure, shortened: as §2

kochia (Kochia scoparia) = experiment: Test C pre-/postemergence: kochia
Procedure, shortened: (§3)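 Preemergence on seeds in loam/sand, postemergence on 2–18 cm (1–4-leaf) plants in peat-based medium; compounds in non-phytotoxic solvent with surfactant. After 13–15 days in greenhouse, visual rating versus controls, 0 (no effect) to 100 (complete control).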

[6] = system: nutsedge, yellow (yellow nutsedge, Cyperus esculentus); experiment: Test C pre-/postemergence: nutsedge, yellow
Procedure, shortened: as §3

[7] = system: ragweed (common ragweed, Ambrosia elation); experiment: Test C pre-/postemergence: ragweed
Procedure, shortened: as §3

soybean (Glycine max) = experiment: Test C pre-/postemergence: soybean
Procedure, shortened: as §3

[8] = system: velvetleaf (Abutilon theophrasti); experiment: Test C pre-/postemergence: velvetleaf
Procedure, shortened: as §3

[9] = Postemergence, 125 g ai/ha, 0 to 100 scale, 0 is no effect, 100 is complete control
[10] = Postemergence, 500 g ai/ha, visual rating on 0 to 100 scale (0 no effect, 100 complete control), approximately ten days
[11] = Preemergence, 125 g ai/ha, 0 to 100 scale (0 no effect, 100 complete control)
[12] = Preemergence, 500 g ai/ha, 0 to 100 scale, 0 is no effect, 100 is complete control
[13] = 125 g ai/ha, 0 to 100 scale, 0 is no effect, 100 is complete control
[14] = 500 g ai/ha, visual rating on 0 to 100 scale (0 no effect, 100 complete control), approximately ten days
[15] = Postemergence, 31 g ai/ha, scale 0 to 100 (0 no effect, 100 complete control)
[16] = Postemergence, 62 g ai/ha, scale 0 to 100 (0 no effect, 100 complete control)
[17] = Postemergence, 125 g ai/ha, scale 0 to 100, 0 no effect, 100 complete control
[18] = Postemergence, 250 g ai/ha, scale 0 to 100
[19] = Preemergence, 31 g ai/ha, scale of 0 to 100, 0 is no effect, 100 is complete control
[20] = Preemergence, 62 g ai/ha, scale of 0 to 100, 0 is no effect, 100 is complete control
[21] = Preemergence, 125 g ai/ha, scale 0 to 100, 0 no effect, 100 complete control
[22] = Preemergence, 250 g ai/ha, scale 0 to 100, 0 no effect, 100 complete control
[23] = Preemergence, 125 g ai/ha, 0 to 100 scale where 0 is no effect and 100 is complete control
[24] = Preemergence, 500 g ai/ha, 0 to 100 scale (0 no effect, 100 complete control)

Fc1ccc(-n2nc(Cc3ccnc(C(F)(F)F)c3)c(OC(F)F)n2)cc1 [Compound 25]
Crabgrass, Large plant response rating [1, 9]: 90
Crabgrass, Large plant response rating [1, 10]: 90
Plant response rating, Crabgrass, Large [1, 11]: 90
Plant response rating, Crabgrass, Large [1, 12]: 100
Foxtail, Giant plant response rating [2, 9]: 90
Foxtail, Giant plant response rating [2, 10]: 90
Plant response rating, Foxtail, Giant [2, 11]: 100
Plant response rating, Foxtail, Giant [2, 12]: 100
Morningglory plant response rating [3, 13]: 100
Morningglory plant response rating [3, 14]: 100
Plant response rating, Morningglory [3, 11]: 30
Plant response rating, Morningglory [3, 12]: 80
Plant response rating, Sedge, Umbrella (0 to 100 scale, 0 is no effect, 100 is complete control) [4]: 95
Plant response rating, Ducksalad (0 to 100 scale, 0 is no effect, 100 is complete control) [5]: 90
Plant response rating, Kochia (kochia (Kochia scoparia); [15]): 75
Plant response rating, Kochia (kochia (Kochia scoparia); [16]): 80
Plant response rating, Kochia (kochia (Kochia scoparia); [17]): 90
Plant response rating, Kochia (kochia (Kochia scoparia); [18]): 90
Plant response rating, Kochia (kochia (Kochia scoparia); [19]): 10
Plant response rating, Kochia (kochia (Kochia scoparia); [20]): 40
Plant response rating, Kochia (kochia (Kochia scoparia); [21]): 55
Plant response rating, Kochia (kochia (Kochia scoparia); [22]): 85
Plant response rating, Nutsedge, Yellow [6, 15]: 5
Plant response rating, Nutsedge, Yellow [6, 16]: 5
Plant response rating, Nutsedge, Yellow [6, 17]: 10
Plant response rating, Nutsedge, Yellow [6, 18]: 10
Plant response rating, Nutsedge, Yellow [6, 19]: 0
Plant response rating, Nutsedge, Yellow [6, 20]: 0
Plant response rating, Nutsedge, Yellow [6, 21]: 0
Plant response rating, Nutsedge, Yellow [6, 22]: 0
Plant response rating, Ragweed [7, 15]: 50
Plant response rating, Ragweed [7, 16]: 50
Plant response rating, Ragweed [7, 17]: 60
Plant response rating, Ragweed [7, 18]: 60
Plant response rating, Ragweed [7, 19]: 5
Plant response rating, Ragweed [7, 20]: 5
Plant response rating, Ragweed [7, 21]: 20
Plant response rating, Ragweed [7, 22]: 50
Plant response rating, Soybean (soybean (Glycine max); [15]): 25
Plant response rating, Soybean (soybean (Glycine max); [16]): 30
Plant response rating, Soybean (soybean (Glycine max); [17]): 30
Plant response rating, Soybean (soybean (Glycine max); [18]): 30
Plant response rating, Soybean (soybean (Glycine max); [19]): 0
Plant response rating, Soybean (soybean (Glycine max); [20]): 0
Plant response rating, Soybean (soybean (Glycine max); [21]): 0
Plant response rating, Soybean (soybean (Glycine max); [22]): 10
Plant response rating, Velvetleaf [8, 15]: 15
Plant response rating, Velvetleaf [8, 16]: 15
Plant response rating, Velvetleaf [8, 17]: 45
Plant response rating, Velvetleaf [8, 18]: 50
Plant response rating, Velvetleaf [8, 19]: 0
Plant response rating, Velvetleaf [8, 20]: 5
Plant response rating, Velvetleaf [8, 21]: 15
Plant response rating, Velvetleaf [8, 22]: 70

Cc1nn(-c2ccc(F)cc2F)nc1Cc1ccnc(C(F)(F)F)c1 [Compound 54, 4-[[2-(2,4-difluorophenyl)-5-methyl-2H-1,2,3-triazol-4-yl]methyl]-2-(trifluoromethyl)pyridine]
pest or weed control at 125 g/ha ([1]; post-emergence, Postemergence, 125 g ai/ha, 0 to 100 scale, 0 is no effect, 100 is complete control, read-out: Crabgrass, Large plant response rating): 80%
pest or weed control at 500 g/ha ([1]; post-emergence, Postemergence, 500 g ai/ha, visual rating on 0 to 100 scale (0 no effect, 100 complete control), approximately ten days, read-out: Crabgrass, Large plant response rating): 90%
pest or weed control at 125 g/ha ([1]; pre-emergence, Preemergence, 125 g ai/ha, 0 to 100 scale (0 no effect, 100 complete control), read-out: Plant response rating, Crabgrass, Large): 100%
pest or weed control at 500 g/ha ([1]; pre-emergence, Preemergence, 500 g ai/ha, 0 to 100 scale, 0 is no effect, 100 is complete control, read-out: Plant response rating, Crabgrass, Large): 100%
pest or weed control at 125 g/ha ([2]; post-emergence, Postemergence, 125 g ai/ha, 0 to 100 scale, 0 is no effect, 100 is complete control, read-out: Foxtail, Giant plant response rating): 80%
pest or weed control at 500 g/ha ([2]; post-emergence, Postemergence, 500 g ai/ha, visual rating on 0 to 100 scale (0 no effect, 100 complete control), approximately ten days, read-out: Foxtail, Giant plant response rating): 90%
pest or weed control at 125 g/ha ([2]; pre-emergence, Preemergence, 125 g ai/ha, 0 to 100 scale (0 no effect, 100 complete control), read-out: Plant response rating, Foxtail, Giant): 100%
pest or weed control at 500 g/ha ([2]; pre-emergence, Preemergence, 500 g ai/ha, 0 to 100 scale, 0 is no effect, 100 is complete control, read-out: Plant response rating, Foxtail, Giant): 100%
pest or weed control at 125 g/ha ([3]; Ipomoea, pre-emergence, 240 h, Preemergence, 125 g ai/ha, 0 to 100 scale (0 no effect, 100 complete control), read-out: Plant response rating, Morningglory): 60%
pest or weed control at 500 g/ha ([3]; Ipomoea, pre-emergence, 240 h, Preemergence, 500 g ai/ha, 0 to 100 scale, 0 is no effect, 100 is complete control, read-out: Plant response rating, Morningglory): 90%
Plant response rating, Sedge, Umbrella (0 to 100 scale, 0 is no effect, 100 is complete control) [4]: 85
Plant response rating, Ducksalad (0 to 100 scale, 0 is no effect, 100 is complete control) [5]: 85

Cc1nn(-c2ccc(C(F)(F)F)cc2)nc1Oc1ccnc(C(F)(F)F)c1 [Compound 120]
Crabgrass, Large plant response rating [1, 9]: 80
Crabgrass, Large plant response rating [1, 10]: 90
Plant response rating, Crabgrass, Large [1, 23]: 100
Plant response rating, Crabgrass, Large [1, 24]: 100
Foxtail, Giant plant response rating [2, 9]: 80
Foxtail, Giant plant response rating [2, 10]: 80
Plant response rating, Foxtail, Giant [2, 23]: 100
Plant response rating, Foxtail, Giant [2, 24]: 100
Morningglory plant response rating [3, 13]: 90
Morningglory plant response rating [3, 14]: 100
Plant response rating, Morningglory [3, 23]: 10
Plant response rating, Morningglory [3, 24]: 30
Plant response rating, Kochia (kochia (Kochia scoparia); [15]): 65
Plant response rating, Kochia (kochia (Kochia scoparia); [16]): 95
Plant response rating, Kochia (kochia (Kochia scoparia); [17]): 98
Plant response rating, Kochia (kochia (Kochia scoparia); [18]): 98
Plant response rating, Kochia (kochia (Kochia scoparia); [19]): 10
Plant response rating, Kochia (kochia (Kochia scoparia); [20]): 90
Plant response rating, Kochia (kochia (Kochia scoparia); [21]): 100
Plant response rating, Kochia (kochia (Kochia scoparia); [22]): 100
Plant response rating, Nutsedge, Yellow [6, 15]: 0
Plant response rating, Nutsedge, Yellow [6, 16]: 0
Plant response rating, Nutsedge, Yellow [6, 17]: 0
Plant response rating, Nutsedge, Yellow [6, 18]: 0
Plant response rating, Nutsedge, Yellow [6, 19]: 0
Plant response rating, Nutsedge, Yellow [6, 20]: 0
Plant response rating, Nutsedge, Yellow [6, 21]: 0
Plant response rating, Nutsedge, Yellow [6, 22]: 0
Plant response rating, Ragweed [7, 15]: 60
Plant response rating, Ragweed [7, 16]: 60
Plant response rating, Ragweed [7, 17]: 80
Plant response rating, Ragweed [7, 18]: 85
Plant response rating, Ragweed [7, 19]: 0
Plant response rating, Ragweed [7, 20]: 45
Plant response rating, Ragweed [7, 21]: 45
Plant response rating, Ragweed [7, 22]: 65
Plant response rating, Soybean (soybean (Glycine max); [15]): 25
Plant response rating, Soybean (soybean (Glycine max); [16]): 25
Plant response rating, Soybean (soybean (Glycine max); [17]): 55
Plant response rating, Soybean (soybean (Glycine max); [18]): 100
Plant response rating, Soybean (soybean (Glycine max); [19]): 0
Plant response rating, Soybean (soybean (Glycine max); [20]): 5
Plant response rating, Soybean (soybean (Glycine max); [21]): 10
Plant response rating, Soybean (soybean (Glycine max); [22]): 20
Plant response rating, Velvetleaf [8, 15]: 20
Plant response rating, Velvetleaf [8, 16]: 45
Plant response rating, Velvetleaf [8, 17]: 55
Plant response rating, Velvetleaf [8, 18]: 65
Plant response rating, Velvetleaf [8, 19]: 5
Plant response rating, Velvetleaf [8, 20]: 15
Plant response rating, Velvetleaf [8, 21]: 35
Plant response rating, Velvetleaf [8, 22]: 100
